{
  "source": "patent US11628171B2",
  "about": "“Method for treating brain or nerve injury” (CHILDREN'S MEDICAL CENTER CORPORATION, priority 2019, dated 2023)",
  "system": "retinal ganglion cells",
  "test": "Optic nerve injury model (\"optic crush\" model), retinal ganglion cell survival",
  "assay_type": "in vivo",
  "conditions": "male mice, intraocular injection following optic nerve injury, 14 days after injury, compared with PBS control; difference statistically significant (FIG. 1)",
  "method": "A PDE1 inhibitory compound was tested in an optic nerve injury model (i.e., the “optic crush” model). The studies described below were carried out using the selective PDE1 inhibitor IC200041, which has the following structure:\nIn this model, optic nerve surgeries were performed on male mice 8 weeks of age (average body weight, 20-26 g) under general anesthesia, as described previously (Yin Y, et al., Oncomodulin links inflammation to optic nerve regeneration. Proc Natl Acad Sci USA. 2009; 106:19587-19592). Following nerve injury, 3 μl of fluid was removed from the eye and a solution containing the PDE1 inhibitory compound was injected intraocularly.\nA total of 4 mouse retinas were treated with the PDE1 inhibitor, and phosphate buffered saline (PBS) was administered to a total of 10 mouse retinas as a control. Mice were typically euthanized with an overdose of anesthesia 14 days after optic nerve injury and were perfused with saline and 4% paraformaldehyde (PFA). These mice were 10 weeks old when killed. Optic nerves and eyes were dissected and postfixed in PFA. […] Axons were counted manually in at least 8 longitudinal sections per case at pre-specified distances from the injury site, and these numbers were converted into the number of regenerating axons at various distances.",
  "data": [
    {"smiles": "CN1C(=O)c2c(nn(Cc3ccc(-c4ccccn4)cc3)c2Nc2ccccc2)N2C1=N[C@@H]1CCC[C@@H]12", "note": "[IC200041]", "values": [
      {"measurement": "survival of retinal ganglion cells", "value": "highly effective in increasing the survival of retinal ganglion cells"}
    ]}
  ]
}
